Patent US20060019890A1, “Method for treating cardiac remodeling following myocardial injury” (priority 2004, published 2006)

Experiments:
[1] = tested on: human cardiac fibroblasts; test: BrdU incorporation, cardiac fibroblast proliferation; type: cell-based; details: 5 ng/ml TGFβ
Method: Cells were placed in 96-well plates and cultured for 24 h before changing to serum-free medium. […] Subsequently, 10 μmol/L of 5-bromo-2′-deoxyuridine (BrdU) was added to the cells, and they were cultured for an additional 24 h. BrdU incorporation was detected using the Cell Proliferation ELISA kit (Roche, Indianapolis, Ind.). Data was analyzed by ANOVA using the Newman-Keuls test to assess significance.

[2] = tested on: human cardiac fibroblasts; test: Real-time RT-PCR gene expression in cardiac fibroblasts; type: cell-based; details: normalized to 18s RNA
Method: Real-time RT-PCR^18 was performed in a two-step manner. cDNA synthesis and real-time detection were carried out in a PTC-100™ Thermal Cycler (MJ Research Inc, Waltham, Mass.) and an ABI Prism™ 7700 Sequence Detection System (Applied Biosystems, Foster City, Calif.), respectively. Random hexamers (Qiagen, Valencia, Calif.) were used to generate cDNA from 200 ng RNA as described in Applied Biosystems User Bulletin #2. TaqMan™ PCR Core Reagent Kit or TaqMan™ Universal PCR Master Mix (Applied Biosystems) were used in subsequent PCR reactions according to the manufacturer's protocols. Relative quantitation of gene expression was performed using the relative standard curve method. All real-time RT-PCR reactions were performed in triplicate.
Sequence specific primers and probes were designed using Primer Express Version 2 software (Applied Biosystems). Sequences of primers and probes can be found in Table 1 below. Expression levels were normalized to 18S rRNA. The selection of 18S rRNA as an endogenous control was based on an evaluation of the ΔCT levels (Applied Biosystems document # 4308134C) of 6 “housekeeping” genes: Cyclophilin A, 18S, GAPDH, β-actin, β-Glucuronidase, and Hypoxanthine Guanine Phosphoribosyl Transferase.

[3] = tested on: human cardiac fibroblasts; test: Western blot analysis of Collagen 1 and Fibronectin protein; type: cell-based; details: 48 h
Method: Lysis was induced with 0.2 ml of buffer containing 20 mM Tris-HCL, pH 7.9, 137 mM NaCl, 1% Triton X-100, 5 mM EDTA, 10 mM NaF, 1 mM β-glycerophosphate, and protease inhibitor cocktail. The protein concentration of each lysate was measured using coomassie protein reagent from PIERCE. Twenty μg of protein from each sample was loaded and electrophoresed on 4-12% gradient polyacrylamide gels and electrophoretically transferred to nitrocellulose membranes (Invitrogen, San Diego, Calif.). The membranes were incubated with rabbit anti-human Collagen 1 antibody (Cortex Biochem, San Leandro, Calif.), HRP-conjugated anti-human Fibronectin antibody, or goat anti-Actin antibody (Santa Cruz Biotehnology, Santa Cruz, Calif.) in TBST buffer containing 20 mM Tris-HCl, pH 7.5, 150 mM NaCl, 0.1% Tween-20, and 5% nonfat dried milk at 4° C. for ˜16 h. For ERK phosphorylation, cells were treated with 0.5 μmol/L BNP in the presence of 1 μmol/L KT5823 or 10 μmol/L U0126 for 15 min; the membranes were incubated with rabbit anti-human phospho-ERK ½ antibody or rabbit anti-human ERK ½ antibody (Cell Signaling, Beverly, Mass.). For secondary antibody detection, membranes were incubated with HRP-conjugated anti-rabbit antibody or anti-goat antibody at room temperature for 1 h and washed 3 times with TBST buffer. The blots were soaked in ECL Plus reagent for 5 min and exposed to KODAK x-ray film. Signals were identified and quantified using a Typhoon Scanner and Densitometer from Amersham Biosciences (Piscataway, N.J.). Data was analyzed by ANOVA using the Newman-Keuls test to assess significance. Results cGMP Production in Cardiac Fibroblasts

[4] = tested on: human cardiac fibroblasts; test: cDNA microarray gene expression profiling of TGFβ- and/or BNP-treated cardiac fibroblasts; details: for number of gene expression changes induced: 1.8-fold threshold
Method: Two lots of primary human cardiac fibroblasts, derived from a person (lot 1) and a person (lot 2), were provided by Cambrex Bio Science (Walkersville, Md.). Cells stained positive for α-smooth muscle actin and vimenfin antibodies corroborating their identity as cardiac fibroblasts and myofibroblasts. Both lots were used for the real-time RT-PCR studies; lot 1 was used for the microarray analysis. Cells at passage 3-5 were cultured in FGM containing 15% FBS. At confluence, cells were split and cultured in 6-well plates for 24 h.
Gene expression profiles were determined from cDNA microarrays containing 8,600 elements derived from clones isolated from normalized cDNA libraries or purchased from ResGen (Invitrogen Life Technologies, Carlsbad, Calif.). DNA for spotting was generated by PCR amplification using 5′amino-modified primers (BD Biosciences Clontech, Palo Alto, Calif.) derived from flanking vector sequences. Amplified DNA was purified in a 96-well format using Qiagen's Qiaquick columns (Valencia, Calif.) according to the manufacturer's recommendations. Samples were eluted in Milli-Q purified water, dried to completion and resuspended in 7 μl of 3×SSC. A fluorescent assay using PicoGreen (Molecular Probes, Eugene, Oreg.) was randomly performed on 12% of the PCR products to determine the average yield after purification; yields were ˜1.5 μg of DNA which corresponds to a concentration of 214 μg/ml. Purified DNA was arrayed from 384-well microtiter plates onto lysine-coated glass slides using an OmniGrid II microarrayer (GeneMachines, San Carlos, Calif.). After printing, DNA was cross-linked to the glass with 65 mjoules UV irradiation and reactive amines were blocked by treatment with succinic anhydride.
Total RNA was extracted from cells using Qiagen's RNeasy kit; two wells from a 6 well plate were pooled to yield a total of 4×10^5 cells per treatment. RNA was amplified using a modified Eberwine protocol^5 that incorporated a polyA tail into the amplified RNA. Fluorescently-labeled cDNA probes were generated by reverse transcription of 4 μg of RNA with SuperScript II (Invitrogen Life Technologies, Carlsbad, Calif.) using anchored dT primers in the presence of Cy3 or Cy5 dUTP (Amersham, Piscataway, N.J.). Labeled cDNA probe pairs were precipitated with ethanol and purified using Qiaquick columns. Twenty μg each of poly(A) DNA, yeast tRNA, and human Cot1 DNA (Applied Genetics, Melbourne, Fla.) was added to the eluant. The samples were dried to completion and resuspended in 12.5 μl 3×SSC, 0.1% SDS. Probes were heated to 95° C. for 5 minutes, applied to the arrays under a 22 mm^2 cover slip and allowed to hybridize for at least 16 h at 65° C. The arrays were washed at 55° C. for 10 minutes in 2×SSC, 0.1% SDS, followed by two washes at room temperature in 1×SSC (10 min) and 0.2×SSC (15 min). Hybridization of each fluorophore was quantified using an Axon GenePix 4000A scanner.
Differential expression values were expressed as the ratio of the median of background-subtracted fluorescent intensity of the experimental RNA to the median of background-subtracted fluorescent intensity of the control RNA. For ratios greater than or equal to 1.0, the ratio was expressed as a positive value. For ratios less than 1.0, the ratio was expressed as the negative reciprocal (i.e., a ratio of 0.5=−2.0). Median ratios were normalized to 1.0 using two pools of 3000 randomly chosen cDNAs in each pool. Six replicates of each of the two pools were printed in 4 evenly distributed blocks of the array. Expression data was rejected if neither channel produced a signal of at least 2.0-fold over background. Differential expression ratios were determined as the mean of the two values from dye-swapped duplicates.

Substance: TGFβ
- increase in cardiac fibroblast proliferation (BrdU incorporation) [1]: ~50%
- ACTA2 expression level relative to control ([2]; 6 h, lot 1): 1.1 ± 0.11
- CTGF expression level relative to control ([2]; 6 h, lot 1): 3.5 ± 0.08
- Collagen 1 expression level relative to control ([2]; 6 h, lot 1): 1.9 ± 0.04
- Fibronectin expression level relative to control ([2]; 6 h, lot 1): 1.1 ± 0.17
- IL6 expression level relative to control ([2]; 6 h, lot 1): 3.6 ± 0.27
- IL11 expression level relative to control ([2]; 6 h, lot 1): 13.3 ± 0.89
- PTGS2/COX-2 expression level relative to control ([2]; 6 h, lot 1): 9.0 ± 1.49
- SERPINE1/PAI-1 expression level relative to control ([2]; 6 h, lot 1): 7.3 ± 0.44
- TIMP3 expression level relative to control ([2]; 6 h, lot 1): 1.4 ± 0.03
- ACTA2 expression level relative to control ([2]; 24 h, lot 1): 2.2 ± 0.00
- CTGF expression level relative to control ([2]; 24 h, lot 1): 3.3 ± 0.25
- Collagen 1 expression level relative to control ([2]; 24 h, lot 1): 3.3 ± 0.05
- Fibronectin expression level relative to control ([2]; 24 h, lot 1): 1.0 ± 0.05
- IL6 expression level relative to control ([2]; 24 h, lot 1): 1.7 ± 0.14
- IL11 expression level relative to control ([2]; 24 h, lot 1): 32.3 ± 0.82
- PTGS2/COX-2 expression level relative to control ([2]; 24 h, lot 1): 3.5 ± 0.67
- SERPINE1/PAI-1 expression level relative to control ([2]; 24 h, lot 1): 8.5 ± 0.08
- TIMP3 expression level relative to control ([2]; 24 h, lot 1): 2.6 ± 0.26
- ACTA2 expression level relative to control ([2]; 24 h, lot 2): 2.3 ± 0.12
- CTGF expression level relative to control ([2]; 24 h, lot 2): 2.2 ± 0.16
- Collagen 1 expression level relative to control ([2]; 24 h, lot 2): 1.5 ± 0.09
- Fibronectin expression level relative to control ([2]; 24 h, lot 2): 1.0 ± 0.02
- IL6 expression level relative to control ([2]; 24 h, lot 2): 1.4 ± 0.05
- IL11 expression level relative to control ([2]; 24 h, lot 2): 7.7 ± 0.81
- PTGS2/COX-2 expression level relative to control ([2]; 24 h, lot 2): 4.9 ± 0.36
- SERPINE1/PAI-1 expression level relative to control ([2]; 24 h, lot 2): 2.4 ± 0.06
- TIMP3 expression level relative to control ([2]; 24 h, lot 2): 1.5 ± 0.12
- ACTA2 expression level relative to control ([2]; 48 h, lot 1): 1.0 ± 0.19
- CTGF expression level relative to control ([2]; 48 h, lot 1): 3.1 ± 0.01
- Collagen 1 expression level relative to control ([2]; 48 h, lot 1): 3.8 ± 0.38
- Fibronectin expression level relative to control ([2]; 48 h, lot 1): 2.2 ± 0.38
- IL6 expression level relative to control ([2]; 48 h, lot 1): 1.6 ± 0.12
- IL11 expression level relative to control ([2]; 48 h, lot 1): 17.6 ± 0.22
- PTGS2/COX-2 expression level relative to control ([2]; 48 h, lot 1): 2.2 ± 0.12
- SERPINE1/PAI-1 expression level relative to control ([2]; 48 h, lot 1): 8.4 ± 1.33
- TIMP3 expression level relative to control ([2]; 48 h, lot 1): 3.0 ± 0.34
- ACTA2 expression level relative to control ([2]; 48 h, lot 2): 2.5 ± 0.13
- CTGF expression level relative to control ([2]; 48 h, lot 2): 2.1 ± 0.14
- Collagen 1 expression level relative to control ([2]; 48 h, lot 2): 2.5 ± 0.32
- Fibronectin expression level relative to control ([2]; 48 h, lot 2): 2.0 ± 0.39
- IL6 expression level relative to control ([2]; 48 h, lot 2): 1.4 ± 0.17
- IL11 expression level relative to control ([2]; 48 h, lot 2): 5.9 ± 0.18
- PTGS2/COX-2 expression level relative to control ([2]; 48 h, lot 2): 5.4 ± 0.92
- SERPINE1/PAI-1 expression level relative to control ([2]; 48 h, lot 2): 2.6 ± 0.03
- TIMP3 expression level relative to control ([2]; 48 h, lot 2): 1.7 ± 0.13
- induction of Collagen 1 protein synthesis [3]: ~3 fold
- number of gene expression changes induced ([4]; 24 h): 394
- TNFAIP6 expression elevation ([4]; 24 h, microarray): ~3 fold
- TNFSF4 expression elevation ([4]; 24 h, microarray): ~3 fold
- number of gene expression changes induced ([4]; 48 h): 501
